Measured values: PMC11156613 (Journal of Advanced Research, 2023)
Where two headings read alike, the source gives them in different places.

Experiments:
Recombinant human HDAC1 = Recombinant human HDAC1 (Homo sapiens, UniProt Q13547); assay: In vitro HDAC enzymatic assay, HDAC1; format: biochemical
Recombinant human HDAC2 = Recombinant human HDAC2 (Homo sapiens, UniProt Q92769); assay: In vitro HDAC enzymatic assay, HDAC2; format: biochemical
Recombinant human HDAC6 = target: T1, Recombinant human HDAC6 (Homo sapiens, UniProt Q9UBN7); assay: In vitro HDAC enzymatic assay, HDAC6; format: biochemical
T1 sequence (Q9UBN7 1-1215): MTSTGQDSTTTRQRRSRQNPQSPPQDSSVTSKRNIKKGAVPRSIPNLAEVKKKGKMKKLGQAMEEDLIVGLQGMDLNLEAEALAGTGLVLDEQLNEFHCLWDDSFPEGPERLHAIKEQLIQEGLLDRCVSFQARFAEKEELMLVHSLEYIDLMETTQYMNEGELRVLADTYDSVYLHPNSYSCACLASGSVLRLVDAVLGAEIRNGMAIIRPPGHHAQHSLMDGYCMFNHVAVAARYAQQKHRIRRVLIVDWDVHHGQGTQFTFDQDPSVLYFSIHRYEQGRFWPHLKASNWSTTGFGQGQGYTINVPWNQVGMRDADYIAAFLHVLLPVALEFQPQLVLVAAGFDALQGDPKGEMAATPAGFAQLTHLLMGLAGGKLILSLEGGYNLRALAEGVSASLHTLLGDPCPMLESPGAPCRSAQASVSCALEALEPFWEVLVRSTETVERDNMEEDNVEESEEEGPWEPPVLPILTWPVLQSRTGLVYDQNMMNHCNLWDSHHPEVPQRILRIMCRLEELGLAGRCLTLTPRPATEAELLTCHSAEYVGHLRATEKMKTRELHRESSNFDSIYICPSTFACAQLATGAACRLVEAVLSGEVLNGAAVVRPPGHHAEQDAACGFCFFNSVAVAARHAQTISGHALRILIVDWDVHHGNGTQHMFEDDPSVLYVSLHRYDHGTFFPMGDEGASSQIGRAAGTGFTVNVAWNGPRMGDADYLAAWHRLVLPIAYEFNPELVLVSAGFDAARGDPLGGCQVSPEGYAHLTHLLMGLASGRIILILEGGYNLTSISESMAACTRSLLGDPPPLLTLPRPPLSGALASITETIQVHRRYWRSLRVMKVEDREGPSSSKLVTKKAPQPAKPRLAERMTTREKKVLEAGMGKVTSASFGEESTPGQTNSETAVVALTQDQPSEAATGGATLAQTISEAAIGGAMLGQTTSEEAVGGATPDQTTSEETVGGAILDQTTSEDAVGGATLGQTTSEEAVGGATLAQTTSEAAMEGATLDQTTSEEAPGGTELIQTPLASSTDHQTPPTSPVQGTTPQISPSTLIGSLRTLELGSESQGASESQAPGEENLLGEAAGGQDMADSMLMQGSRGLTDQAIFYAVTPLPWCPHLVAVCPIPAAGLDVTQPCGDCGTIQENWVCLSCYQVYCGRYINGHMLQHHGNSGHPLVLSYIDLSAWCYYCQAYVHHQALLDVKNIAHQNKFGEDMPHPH

recombinant human HDAC8 = target: T2, recombinant human HDAC8 (Homo sapiens, UniProt Q9BY41); assay: In vitro HDAC8 homogenous fluorescence assay; format: biochemical
T2 sequence (Q9BY41 1-377): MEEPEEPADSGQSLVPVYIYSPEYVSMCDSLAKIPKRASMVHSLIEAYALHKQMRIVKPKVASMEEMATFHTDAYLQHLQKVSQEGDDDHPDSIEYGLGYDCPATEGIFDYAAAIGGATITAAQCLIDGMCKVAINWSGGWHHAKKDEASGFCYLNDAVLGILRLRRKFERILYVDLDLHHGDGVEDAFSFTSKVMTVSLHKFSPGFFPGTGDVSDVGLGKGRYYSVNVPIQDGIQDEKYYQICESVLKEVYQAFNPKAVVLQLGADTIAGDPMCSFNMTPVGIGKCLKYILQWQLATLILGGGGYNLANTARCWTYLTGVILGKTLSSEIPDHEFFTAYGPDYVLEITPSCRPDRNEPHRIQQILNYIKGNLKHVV

Recombinant human HDAC11 = target: T3, Recombinant human HDAC11 (Homo sapiens, UniProt Q96DB2); assay: In vitro HDAC11 inhibition assay; format: biochemical
T3 sequence (Q96DB2 1-347): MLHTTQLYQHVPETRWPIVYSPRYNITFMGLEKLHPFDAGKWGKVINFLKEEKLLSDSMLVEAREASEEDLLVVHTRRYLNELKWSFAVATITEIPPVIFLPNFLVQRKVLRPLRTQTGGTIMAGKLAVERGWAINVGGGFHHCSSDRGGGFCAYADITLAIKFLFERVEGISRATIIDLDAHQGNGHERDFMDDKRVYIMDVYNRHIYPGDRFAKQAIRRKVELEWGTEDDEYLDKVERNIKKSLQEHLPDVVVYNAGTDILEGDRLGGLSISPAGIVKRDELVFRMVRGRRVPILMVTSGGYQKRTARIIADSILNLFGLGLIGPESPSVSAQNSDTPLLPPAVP

HEL cells = assay: Apoptosis induction, annexin-V/PI flow cytometry; format: cell-based, human; conditions: 24 h
[1] = target: Recombinant human HDAC3/NCOR1 (Homo sapiens, UniProt O15379); assay: In vitro HDAC enzymatic assay, HDAC3
Chain of Recombinant human HDAC3/NCOR1 (O15379 whole entry): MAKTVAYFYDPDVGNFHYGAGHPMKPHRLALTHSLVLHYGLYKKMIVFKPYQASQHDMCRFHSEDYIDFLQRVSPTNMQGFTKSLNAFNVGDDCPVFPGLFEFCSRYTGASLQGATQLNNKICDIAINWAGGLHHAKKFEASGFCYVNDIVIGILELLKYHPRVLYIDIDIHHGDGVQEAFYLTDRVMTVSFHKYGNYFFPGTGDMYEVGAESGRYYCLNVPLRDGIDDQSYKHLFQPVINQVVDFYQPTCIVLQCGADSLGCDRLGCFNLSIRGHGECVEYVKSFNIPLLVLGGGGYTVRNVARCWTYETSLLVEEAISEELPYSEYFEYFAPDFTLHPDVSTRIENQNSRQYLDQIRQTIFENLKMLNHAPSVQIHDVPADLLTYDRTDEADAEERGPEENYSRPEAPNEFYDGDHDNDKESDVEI
Chain of Recombinant human HDAC3/NCOR1 (O75376 395-489 partner limits assumed): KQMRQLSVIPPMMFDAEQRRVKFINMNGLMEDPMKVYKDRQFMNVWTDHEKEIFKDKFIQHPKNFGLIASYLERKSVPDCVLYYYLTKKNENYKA

Chain of Recombinant human HDAC1 (Q13547 whole entry): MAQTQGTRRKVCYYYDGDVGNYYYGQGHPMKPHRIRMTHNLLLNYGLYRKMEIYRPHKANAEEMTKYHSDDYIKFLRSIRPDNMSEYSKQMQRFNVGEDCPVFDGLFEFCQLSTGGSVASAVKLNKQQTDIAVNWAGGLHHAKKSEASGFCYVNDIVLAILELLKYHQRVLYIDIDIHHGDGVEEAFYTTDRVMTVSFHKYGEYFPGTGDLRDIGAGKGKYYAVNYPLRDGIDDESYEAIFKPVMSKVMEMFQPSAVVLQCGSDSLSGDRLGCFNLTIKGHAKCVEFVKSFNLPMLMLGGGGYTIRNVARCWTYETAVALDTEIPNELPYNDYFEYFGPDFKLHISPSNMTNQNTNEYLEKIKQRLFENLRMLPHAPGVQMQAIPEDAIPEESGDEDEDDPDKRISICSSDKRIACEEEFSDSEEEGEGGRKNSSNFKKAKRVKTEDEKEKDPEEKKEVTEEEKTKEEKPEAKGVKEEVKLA
Chain of Recombinant human HDAC2 (Q92769 whole entry): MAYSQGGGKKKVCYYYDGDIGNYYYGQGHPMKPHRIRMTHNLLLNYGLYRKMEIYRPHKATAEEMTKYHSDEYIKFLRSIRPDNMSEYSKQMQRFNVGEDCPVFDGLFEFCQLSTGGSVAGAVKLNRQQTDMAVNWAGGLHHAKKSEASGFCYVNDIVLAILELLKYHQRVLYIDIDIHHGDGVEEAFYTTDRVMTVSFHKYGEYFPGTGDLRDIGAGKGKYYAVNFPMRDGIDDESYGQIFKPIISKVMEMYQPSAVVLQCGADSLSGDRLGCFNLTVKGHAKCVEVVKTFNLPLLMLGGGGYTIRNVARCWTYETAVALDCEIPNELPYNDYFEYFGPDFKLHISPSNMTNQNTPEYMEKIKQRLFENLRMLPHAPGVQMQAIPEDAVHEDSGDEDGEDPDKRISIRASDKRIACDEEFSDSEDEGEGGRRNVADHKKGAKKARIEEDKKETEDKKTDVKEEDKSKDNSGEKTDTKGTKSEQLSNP

| Compound | IC50 (Recombinant human HDAC1; read-out: HDAC1 IC50) | IC50 (Recombinant human HDAC1; read-out: HDAC1 IC50, Ac-RHKK(Acetyl)-AMC substrate, 37 °C) | IC50 (Recombinant human HDAC2; read-out: HDAC2 IC50, Ac-RHKK(Acetyl)-AMC substrate, 37 °C) | IC50 (Recombinant human HDAC6; read-out: HDAC6 IC50, Abz-SRGGK(thio-TFA)FFRR-NH2 substrate) | IC50 (recombinant human HDAC8; read-out: HDAC8 IC50, ZMAL 10.5 μM, 90 min, 37 °C) | IC50 (Recombinant human HDAC11; read-out: HDAC11 IC50) | concentration at which apoptosis induction starts (HEL cells) | IC50 ([1]; read-out: HDAC3 IC50, Ac-RHKK(Acetyl)-AMC substrate, 37 °C) | IC50 (Recombinant human HDAC1; HDAC1 IC50, Ac-RHKK(Acetyl)-AMC substrate, 37 °C) | IC50 (Recombinant human HDAC1; HDAC1 IC50, as stated in text) | IC50 (Recombinant human HDAC2) | IC50 (Recombinant human HDAC6) | fold more potent inhibitor of HDAC6 than KH9 and KH16 (Recombinant human HDAC6; from Table 1 IC50 values) | IC50 (recombinant human HDAC8) | IC50 (Recombinant human HDAC11) | IC50 [1] |
| --- | --- | --- | --- | --- | --- | --- | --- | --- | --- | --- | --- | --- | --- | --- | --- | --- |
| COc1ccc(/C=C/CN2CCN(c3ncc(C(=O)NO)cn3)CC2)cc1.Cl [KH9, (E)-N-Hydroxy-2-(4-(3-(4-methoxyphenyl)allyl)piperazin-1-yl)pyrimidine-5-carboxamide Hydrchloride] | 9 nM | 8.9 ± 0.5 nM | 22 ± 1 nM | 140 ± 10 nM | 110 ± 10 nM | 1500 ± 100 nM | approximately 50 nM | 19 ± 1 nM |  |  |  |  |  |  |  |  |
| Cl.Cn1cc(CN2CCN(c3ncc(C(=O)NO)cn3)CC2)c2ccccc21 [KH29, N-hydroxy-2-(4-((1-methyl-1H-indol-3-yl)methyl)piperazin-1-yl)pyrimidine-5-carboxamide Hydrochloride] |  |  |  |  |  |  | 55 nM |  | 9.4 ± 0.5 nM | 9 nM | 26 ± 1 nM | 25 ± 1 nM | at least 10 fold | 49 ± 2 nM | 1000 ± 100 nM | 20 ± 1 nM |
